Data as given in patent publication US11266663B2, “Treatment of neuropsychiatric disorders with neurosteroids and analogues thereof” (THE BOARD OF TRUSTEES OF THE UNIVERSITY OF ILLINOIS, priority 2017, dated 2022).
“And” between values parts separate entries of the source, which are not always exact repeats. Equal entries are not always repeated. “Also recorded” adds a separate entry of the source.

Experiments:
[1] = test system: early and late adolescent SI mice; assay: Resident-intruder test, aggressive behavior of socially isolated (SI) mice; format: in vivo, Swiss-Webster mice; conditions: for reduction in the number of attacks vs. basal value / EC50 dose, decrease of aggression: 60 min before test; for “Non-responders” Early SI mice (%) / “Non-responders” Late SI mice (%): decrease of aggression <=30% vs basal; for EC50 dose, decrease of aggression: i.p.
From the text: Male Swiss-Webster mice (Harlan Breeders) (18-30 g body weight), maintained under a 12-h dark/light cycle with food and water ad libitum were used for all experiments. Mice were housed individually in a cage of dimensions 24 cm×17 cm×12 cm. For these experiments, two mice experimental groups were used for the study of drug effect in different age conditions. The first group was isolated at 21 days (“early adolescent SI mice,” PND 21), while the second group at 45 days (“late adolescent SI mice,” PND 45). The animals were exposed to behavioral testing after 6 weeks of isolation. The vivarium temperature was kept at 24° C. and the humidity near 65%.
[…] All the drugs were dissolved in saline solution containing 0.5% Tween-80 (Sigma Aldrich, St. Louis, Mo., United States), and were injected intraperitoneally (i.p.), 60 min before behavioral tests.
To test aggression, a male intruder mouse of the same strain as the resident mouse, was placed in a resident home cage (24 cm×17 cm×12 cm) and resident-intruder interactions were videotaped for 10 min. Aggressive behavior of SI mice was characterized by an initial pattern of exploratory activity around the intruder, followed by rearing and tail rattle, accompanied within a few seconds by wrestling and/or a violent biting attacks. The total number of wrestling and attacks during the 10 min observation period was measured as previously described (Pinna et al., 2003, 2005), 60 min after drug administration. For every drug studied, SI mice were first exposed to three behavioral sessions, and then the average of basal aggression level for every single SI mouse was calculated; 2 days later, aggression levels following treatment were tested. Treated animals showing a reduction of the number of attacks less than 30% vs. the respective basal control values were considered as “low- to non-responders.”
Results are presented as means±SEMs unless otherwise indicated. Student's t-test, one-way ANOVA and two-way ANOVA repeated measures followed by Bonferroni post hoc test were performed to analyze experimental data; significance was set at p<0.05. EC50 values were calculated from dose-response curves analyzed by the “quantal dose-response: probits test” using the computer program of Tallarida and Murray equipped with a statistical package (Tallarida and Murray, 1987). Statistical comparisons among the different ECsos were performed with the “cohort package software.” (available at cohort.com).

[2] = test system: early and late adolescent SI mice; assay: Locomotor activity test; format: in vivo, Swiss-Webster mice; conditions: all doses tested, i.p., 60 min before test, 10 min recording
Procedure: BR351 (1-5 mg/kg) and BR297 (0.3125-2.5 mg/kg) were obtained from NeuroRhine Consortium (Strasbourgh, France). All the drugs were dissolved in saline solution containing 0.5% Tween-80 (Sigma Aldrich, St. Louis, Mo., United States), and were injected intraperitoneally (i.p.), 60 min before behavioral tests.
A computerized AccuScan 12 Animal Activity Monitoring System (Columbus Instruments, Columbus, Ohio, United States) assisted by VERSAMAX software (AccuScan Instruments, Columbus, Ohio, United States) was used to quantify locomotor activity (Pinna et al., 1997, 2006a). Each activity cage was made of a 20 cm×20 cm×20 cm Perspex box surrounded by horizontal and vertical infrared sensor beams. Horizontal sensors' beam interruptions were taken as a measure of horizontal activity.

[3] = test system: early and late adolescent SI mice; conditions: i.p., previously established in Pinna and Rasmusson, 2014; cited from earlier work
[4] = test system: post-partum depression patients; conditions: two-day course of intravenous infusion; cited from earlier work
[5] = early SI mice, single dose 2.5 mg/kg
[6] = early adolescent SI mice (PND 21)
[7] = late SI mice, single dose 2.5 mg/kg (given in mg)
[8] = late adolescent SI mice (PND 45)
[9] = early SI mice, single dose, dose not stated (FIG. 5 legend)
[10] = late SI mice, single dose, dose not stated (FIG. 5 legend)

## CC(=O)[C@H]1CC[C@H]2[C@@H]3CC[C@H]4C[C@](C)(O)CC[C@]4(C)[C@H]3CC[C@]12C [GNX, ganaxolone, reference compound]
[1]; 10 mg/kg i.p.
  difference of anti-aggressive effect, late compared with early SI mice: +197%
[1]; early SI mice (PND 21), 10 mg/kg i.p.
  reduction in the number of attacks vs. basal value: −72%
[1]; early SI mice, single dose 10 mg/kg (given in mg), 10 mg/kg
  “Non-responders” Early SI mice (%): 25%
[1]; late SI mice (PND 45), 10 mg/kg i.p.
  reduction in the number of attacks vs. basal value: −46%
[1]; late SI mice, single dose 10 mg/kg (given in mg), 10 mg/kg
  “Non-responders” Late SI mice (%): 15.38% and 15.4%
[1]; late SI mice, single dose 10 mg/kg (EC50 dose)
  duration of anti-aggressive effect (time until aggression rebounded to basal values): 5 days
[2]
  effect on locomotor (exploratory) activity: failed to alter locomotion patterns
[3]
  EC50 dose: 10 mg/kg

## C=CCO[C@@H]1CC[C@]2(C)C3CC[C@@]4(C)C(CC[C@@H]4C(C)=O)C3CC[C@H]2C1 (stereo partly shown) [BR351]
[1]; 5 mg/kg i.p., trend, p=0.0801
  difference of anti-aggressive effect, late compared with early SI mice: +179%
[1]; early SI mice (PND 21), 5 mg/kg i.p.
  reduction in the number of attacks vs. basal value: −56%
[1]; early SI mice, single dose 1 mg/kg (given in mg)
  “Non-responders” Early SI mice (%): 50.0%
[1]; early SI mice, single dose 2.5 mg/kg (given in mg)
  “Non-responders” Early SI mice (%): 20.0%
[1]; early SI mice, single dose 5 mg/kg (given in mg), 5 mg/kg
  “Non-responders” Early SI mice (%): 13.33% and 13.3%
[1]; early SI mice, single dose 1 mg/kg
  duration of anti-aggressive effect (time until aggression rebounded to basal values): rapidly extinguished
[1]; [5]
  duration of anti-aggressive effect (time until aggression rebounded to basal values): 5 days
[1]; early SI mice, single dose 5 mg/kg
  duration of anti-aggressive effect (time until aggression rebounded to basal values): 3 days
[1]; [6]
  EC50 dose, decrease of aggression: 4.5 mg/kg
[1]; late SI mice (PND 45), 5 mg/kg i.p.
  reduction in the number of attacks vs. basal value: −80%
[1]; late SI mice, single dose 1 mg/kg (given in mg)
  “Non-responders” Late SI mice (%): 54.6%
[1]; [7]
  “Non-responders” Late SI mice (%): 40.0%
[1]; late SI mice, single dose 5 mg/kg (given in mg), 5 mg/kg
  “Non-responders” Late SI mice (%): 8.33% and 8.3%
[1]; late SI mice, single dose 1 mg/kg
  duration of anti-aggressive effect (time until aggression rebounded to basal values): 1 days
[1]; late SI mice, single dose 2.5 mg/kg
  duration of anti-aggressive effect (time until aggression rebounded to basal values): 5 days
[1]; late SI mice, single dose 5 mg/kg
  duration of anti-aggressive effect (time until aggression rebounded to basal values): 5 days
[1]; [8]
  EC50 dose, decrease of aggression: 3.75 mg/kg
[2]
  effect on locomotor (exploratory) activity: failed to alter locomotion patterns

## C=CCO[C@H]1CC[C@]2(C)C3CC[C@@]4(C)C(CC[C@@H]4C(C)=O)C3CC[C@H]2C1 (stereo partly shown) [BR297]
[1]; 2.5 mg/kg i.p., trend, p=0.108
  difference of anti-aggressive effect, late compared with early SI mice: +235%
[1]; early SI mice (PND 21), 0.3125 mg/kg i.p.
  reduction in the number of attacks vs. basal value: −59%
[1]; early SI mice (PND 21), 0.625 mg/kg i.p.
  reduction in the number of attacks vs. basal value: −61%
[1]; early SI mice (PND 21), 2.5 mg/kg i.p.
  reduction in the number of attacks vs. basal value: −70%
[1]; early SI mice, single dose 0.3125 mg/kg (given in mg)
  “Non-responders” Early SI mice (%): 30.0%
[1]; early SI mice, single dose 0.625 mg/kg (given in mg)
  “Non-responders” Early SI mice (%): 21.4%
[1]; early SI mice, single dose 2.5 mg/kg (given in mg), 2.5 mg/kg
  “Non-responders” Early SI mice (%): 6.25% and 6.3%
[1]; early SI mice, single dose 0.3125 mg/kg
  duration of anti-aggressive effect (time until aggression rebounded to basal values): 3 days
[1]; early SI mice, single dose 0.625 mg/kg
  duration of anti-aggressive effect (time until aggression rebounded to basal values): 7 days
[1]; [5]
  duration of anti-aggressive effect (time until aggression rebounded to basal values): 7 days
[1]; [9]
  duration of anti-aggressive effect (time until aggression rebounded to basal values): 7 days
[1]; [6]
  EC50 dose, decrease of aggression: 0.25 mg/kg
[1]; late SI mice (PND 45), 0.3125 mg/kg i.p.
  reduction in the number of attacks vs. basal value: −60%
[1]; late SI mice (PND 45), 0.625 mg/kg i.p.
  reduction in the number of attacks vs. basal value: −63%
[1]; late SI mice (PND 45), 2.5 mg/kg i.p.
  reduction in the number of attacks vs. basal value: −91%
[1]; late SI mice, single dose 0.3125 mg/kg (given in mg)
  “Non-responders” Late SI mice (%): 18.2%
[1]; late SI mice, single dose 0.625 mg/kg (given in mg)
  “Non-responders” Late SI mice (%): 18.2%
[1]; [7]
  “Non-responders” Late SI mice (%): 0%
[1]; late SI mice, single dose 0.3125 mg/kg
  duration of anti-aggressive effect (time until aggression rebounded to basal values): 3 days
[1]; late SI mice, single dose 0.625 mg/kg
  duration of anti-aggressive effect (time until aggression rebounded to basal values): 9 days
[1]; [10]
  duration of anti-aggressive effect (time until aggression rebounded to basal values): 9 days
[1]; [8]
  EC50 dose, decrease of aggression: 0.25 mg/kg
[2]
  effect on locomotor (exploratory) activity: failed to alter locomotion patterns

## CC(=O)C1CC[C@H]2[C@@H]3CCC4C[C@H](O)CC[C@]4(C)[C@H]3CC[C@]12C (stereo partly shown) [Allo, allopregnanolone]
[4]
  duration of symptom improvement: 30 days
  remission of post-partum depression, patients: 70%
  time to symptom improvement: 60 h

## CCCCCCCCCCCCCCCC(=O)NCCO [PEA, N-palmitoylethanolamine]
[2]
  effect on locomotor (exploratory) activity: not altered

## CNCC[C@H](Oc1ccc(C(F)(F)F)cc1)c1ccccc1 [S-FLX, S-fluoxetine, reference compound]
[1]; early SI mice, single dose 0.375 mg/kg
  duration of anti-aggressive effect (time until aggression rebounded to basal values): 1 days
[1]; early SI mice, single dose 0.75 mg/kg
  duration of anti-aggressive effect (time until aggression rebounded to basal values): 3 days
[1]; [9]
  duration of anti-aggressive effect (time until aggression rebounded to basal values): 3 days
[1]; late SI mice (PND 45), 0.75 mg/kg i.p.
  reduction in the number of attacks vs. basal value: −52%
[1]; late SI mice, single dose 0.375 mg/kg
  duration of anti-aggressive effect (time until aggression rebounded to basal values): 1 days
[1]; late SI mice, single dose 0.75 mg/kg
  duration of anti-aggressive effect (time until aggression rebounded to basal values): 3 days
[1]; [10]
  duration of anti-aggressive effect (time until aggression rebounded to basal values): 3 days
[2]
  effect on locomotor (exploratory) activity: did not reduce exploratory activity; also recorded: failed to alter locomotion patterns
